Measurements reported in PMC5161585 (Nature, 2016).
“Also recorded” adds a separate entry of the source.

Assays:
human μOR [1] = target: T1, human μOR (Homo sapiens, UniProt P35372); assay: β-arrestin-2 recruitment by BRET in HEK-293T cells; assay type: cell-based
κOR [2] = target: T2, κOR (Homo sapiens, UniProt P41145); assay: Gi/o Glosensor assay at κOR; assay type: cell-based
SSTR4 = SSTR4 (Homo sapiens, UniProt P31391); assay: Gi/o Glosensor assay measuring SSTR4 activation; assay type: cell-based
mice [3] = assay: Accumulated faecal boli quantification; assay type: in vivo, mouse; settings: morphine 10 mg/kg, PZM21 20 mg/kg
320 non-olfactory GPCRs = assay: PRESTO-Tango GPCRome β-arrestin recruitment screen; assay type: cell-based; settings: 10 μM screen, hits re-tested in full dose–response
mice [4] = assay: Formalin injection nociception assay; assay type: in vivo, mouse; settings: morphine 10 mg/kg, PZM21 40 mg/kg
κOR [5] = target: T2, κOR; assay: Radioligand binding at κOR; settings: read-out: κOR Ki
δOR [6] = target: T3, δOR (Homo sapiens, UniProt P41143); assay: Radioligand binding at δOR; settings: read-out: δOR Ki
mice [7] = assay: Whole-body mouse plethysmography; assay type: in vivo; settings: equi-analgesic doses: PZM21 40 mg/kg, TRV130 1.2 mg/kg, morphine 10 mg/kg
C57BL/6J mice [8] = assay: Mouse hotplate analgesia assay; settings: 15 min after the highest dose tested (40 mg/kg), subcutaneous
mice [9] = assay: Open field locomotor response; assay type: in vivo, mouse; settings: morphine 10 mg/kg, PZM21 20 mg/kg
nociceptin receptor = nociceptin receptor (Homo sapiens, UniProt P41146); assay: Gi/o Glosensor assay at nociceptin receptor; assay type: cell-based
C57BL/6J mice [10] = assay: Mouse tail-flick assay; settings: in vivo
Oprm1−/− mice = assay: Hotplate assay in μOR knockout mice; assay type: in vivo, mouse; settings: morphine 10 mg/kg, PZM21 20 mg/kg, 30 min
mice [11] = assay: Conditioned place preference; assay type: in vivo, mouse; settings: morphine 10 mg/kg, PZM21 20 mg/kg, TRV130 1.2 mg/kg
[12] = Metabolism in mouse liver microsomes; assay type: in vitro ADME; settings: over one hour, 80 μM
δOR [13] = target: T3, δOR; assay: Gi/o Glosensor assay at δOR; assay type: cell-based
mice [14] = assay: Catalepsy bar test; assay type: in vivo, mouse; settings: PZM21 20 mg/kg, morphine 10 mg/kg
[15] = Pharmacokinetics of PZM21, serum and brain levels; assay type: in vivo, mouse; settings: 20 mg/kg subcutaneous, mice
C57BL/6J mice [16] = assay: Hotplate assay subcategorized into affective and reflexive responses; assay type: in vivo, mouse; settings: for analgesia on affective versus reflexive component of pain: morphine 10 mg/kg, PZM21 20 mg/kg
human μOR [17] = target: T1, human μOR; assay: BRET-based; assay type: cell-based; settings: read-out: EC50 in CAMYEL-based Gi/o signalling assay
human μOR [18] = target: T1, human μOR; assay: Receptor internalization, PathHunter GPCR internalization assay in U2OS cells; assay type: cell-based

T1 sequence (P35372 whole entry): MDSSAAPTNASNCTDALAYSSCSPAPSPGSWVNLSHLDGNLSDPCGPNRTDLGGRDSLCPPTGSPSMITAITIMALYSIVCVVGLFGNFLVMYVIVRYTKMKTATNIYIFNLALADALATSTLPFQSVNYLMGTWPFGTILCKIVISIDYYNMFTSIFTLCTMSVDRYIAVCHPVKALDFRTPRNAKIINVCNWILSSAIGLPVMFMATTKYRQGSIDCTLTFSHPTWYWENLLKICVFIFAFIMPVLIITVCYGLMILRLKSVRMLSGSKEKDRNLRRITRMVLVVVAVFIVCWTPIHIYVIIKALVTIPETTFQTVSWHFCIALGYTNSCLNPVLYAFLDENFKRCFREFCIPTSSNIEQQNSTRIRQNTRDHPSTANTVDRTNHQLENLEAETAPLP
T2 sequence (P41145 whole entry): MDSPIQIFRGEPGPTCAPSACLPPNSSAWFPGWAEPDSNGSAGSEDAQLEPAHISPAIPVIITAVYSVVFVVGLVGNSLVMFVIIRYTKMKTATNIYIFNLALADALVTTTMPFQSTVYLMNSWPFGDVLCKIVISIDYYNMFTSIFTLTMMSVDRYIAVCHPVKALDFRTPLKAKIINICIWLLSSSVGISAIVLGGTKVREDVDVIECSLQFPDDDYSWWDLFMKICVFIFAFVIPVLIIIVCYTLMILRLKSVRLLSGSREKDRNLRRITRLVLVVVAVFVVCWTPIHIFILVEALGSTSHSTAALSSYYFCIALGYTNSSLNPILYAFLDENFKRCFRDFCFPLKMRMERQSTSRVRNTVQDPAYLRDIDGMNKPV
T3 sequence (P41143 whole entry): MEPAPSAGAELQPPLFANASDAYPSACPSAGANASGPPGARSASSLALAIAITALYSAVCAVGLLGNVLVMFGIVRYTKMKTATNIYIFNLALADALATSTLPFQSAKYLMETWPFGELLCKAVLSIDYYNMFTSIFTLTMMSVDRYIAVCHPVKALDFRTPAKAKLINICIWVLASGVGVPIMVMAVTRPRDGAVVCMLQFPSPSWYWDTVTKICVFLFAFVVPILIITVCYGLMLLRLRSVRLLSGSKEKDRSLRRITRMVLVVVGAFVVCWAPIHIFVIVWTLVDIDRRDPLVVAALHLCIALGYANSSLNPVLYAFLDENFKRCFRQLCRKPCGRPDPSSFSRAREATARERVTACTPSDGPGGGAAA
Sequence of nociceptin receptor (P41146 whole entry, species assumed): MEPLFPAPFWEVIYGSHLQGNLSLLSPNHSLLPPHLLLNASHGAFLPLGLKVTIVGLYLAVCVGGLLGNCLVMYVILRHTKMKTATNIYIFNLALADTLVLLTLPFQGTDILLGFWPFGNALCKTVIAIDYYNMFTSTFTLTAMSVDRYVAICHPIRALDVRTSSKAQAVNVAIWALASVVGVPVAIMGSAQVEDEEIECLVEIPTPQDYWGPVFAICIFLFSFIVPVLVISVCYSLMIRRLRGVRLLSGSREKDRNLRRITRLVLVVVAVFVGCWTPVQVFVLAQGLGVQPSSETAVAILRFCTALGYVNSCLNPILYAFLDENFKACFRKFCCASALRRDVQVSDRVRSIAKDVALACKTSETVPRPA
Sequence of SSTR4 (P31391 whole entry, species assumed): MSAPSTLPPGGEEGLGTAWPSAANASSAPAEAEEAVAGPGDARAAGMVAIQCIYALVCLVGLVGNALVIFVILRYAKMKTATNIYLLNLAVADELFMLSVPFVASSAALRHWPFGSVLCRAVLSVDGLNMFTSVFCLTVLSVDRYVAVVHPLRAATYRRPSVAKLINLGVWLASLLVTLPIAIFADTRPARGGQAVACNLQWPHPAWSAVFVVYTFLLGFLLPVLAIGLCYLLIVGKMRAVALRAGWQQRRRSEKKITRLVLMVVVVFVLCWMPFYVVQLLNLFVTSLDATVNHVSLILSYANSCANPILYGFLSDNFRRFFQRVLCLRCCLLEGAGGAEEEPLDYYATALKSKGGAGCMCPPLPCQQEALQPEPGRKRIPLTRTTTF

Compound: COC(=O)[C@@H]1C[C@H](OC(=O)c2ccccc2)C(=O)[C@H]2[C@@]1(C)CC[C@H]1C(=O)O[C@H](c3ccoc3)C[C@]21C [Herkinorin, herkinorin]
- arrestin recruitment in BRET assay in the absence of GRK2 overexpression (human μOR [1]): robustly recruits arrestin
- κOR agonist activity (in words) (κOR [2]): potent agonists of the κOR

Compound: C[C@@H](Cc1ccsc1)NC(=O)NC[C@H](Cc1ccc(O)cc1)N(C)C [PZM21]
- SSTR4 activation, cAMP inhibition (SSTR4): does not show a dose-dependent change in cAMP inhibition
- constipating effect (accumulated faecal boli) (mice [3]): constipating effect is substantially less than morphine
- agonism at other GPCRs (320 non-olfactory GPCRs): no potent activity was confirmed with a full dose–response experiment
- analgesia in formalin injection nociception assay (mice [4]): active in a formalin injection nociception assay
- Ki (κOR [5]): 18 nM
- κOR agonist activity (in words) (κOR [2]): no detectable κOR or nociceptin receptor agonist activity
- Ki (δOR [6]): 506 nM
- effect on respiration frequency (mice [7]): almost undistinguishable from vehicle
- per cent maximal possible effect (% MPE), hotplate (C57BL/6J mice [8]): 87%
- effect on locomotion in open-field assay (mice [9]): no apparent effect on locomotion versus vehicle
- nociceptin receptor agonist activity (in words) (nociceptin receptor): no detectable κOR or nociceptin receptor agonist activity
- analgesic effect in tail-flick assay (C57BL/6J mice [10]): no analgesic effect
- analgesic response in hotplate assay in μOR knockout mice (Oprm1−/− mice): completely ablates the observed analgesic response
- conditioned place preference (mice [11]): does not induce a conditioned place preference response
- metabolism by mouse liver microsomes [12]: 8%
- δOR Gi/o (Glosensor) Emax (δOR [13]): 78%
- EC50 (δOR [13]; read-out: δOR Gi/o (Glosensor) EC50): 1900 nM
- cataleptic effect (mice [14]): minimal cataleptic effect compared to morphine
- peak level in brain tissue [15]: 197 ng per g
- concomitant serum concentration ([15]; at brain peak): 1,253 ng/ml
- duration of analgesia (C57BL/6J mice [16]; hotplate): up to 180 min
- analgesia on affective versus reflexive component of pain (C57BL/6J mice [16]): solely confers analgesia to the affective component of pain; also recorded: only modulates the attending (affective) component

Compound: CN(C)[C@H](CNC(=O)NCCc1ccccc1)Cc1ccc(O)cc1 [PZM22]
- EC50 (human μOR [17]): 1.8 nM

Compound: COc1ccsc1CNCC[C@@]1(c2ccccn2)CCOC2(CCCC2)C1 [TRV130]
- μOR internalization (human μOR [18]): much decreased receptor internalization versus DAMGO and even morphine
- κOR agonist activity (in words) (κOR [2]): potent agonists of the κOR
- effect on respiration frequency (mice [7]): significantly depresses respiration at 15 min
- conditioned place preference (mice [11]): not significant relative to vehicle

Compound: CN1CC[C@]23c4c5ccc(O)c4O[C@H]2[C@@H](O)C=C[C@H]3[C@H]1C5 [morphine, reference compound]
- analgesia in formalin injection nociception assay (mice [4]): sustained analgesia
- conditioned place preference (mice [11]): Place preference is induced
- analgesia on affective versus reflexive component of pain (C57BL/6J mice [16]): induces changes in both behaviours
